Target: T1, GMDS (GDP-mannose 4,6-dehydratase) (Homo sapiens, UniProt O60547)
T1 construct: recombinant human GMDS with a His-tag (Addgene plasmid # 39152)
T1 sequence (O60547 2-372): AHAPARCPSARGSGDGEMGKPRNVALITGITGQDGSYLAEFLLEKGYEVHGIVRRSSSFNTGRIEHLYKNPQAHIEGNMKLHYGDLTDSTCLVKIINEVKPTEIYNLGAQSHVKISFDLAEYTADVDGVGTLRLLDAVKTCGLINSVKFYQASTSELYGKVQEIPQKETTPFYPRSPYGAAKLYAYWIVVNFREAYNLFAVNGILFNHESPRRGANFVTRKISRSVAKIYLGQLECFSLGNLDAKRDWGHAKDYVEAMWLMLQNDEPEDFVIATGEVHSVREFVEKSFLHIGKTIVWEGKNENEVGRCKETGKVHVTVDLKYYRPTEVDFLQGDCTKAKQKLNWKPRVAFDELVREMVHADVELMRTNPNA
Test: LC-MS and 1H NMR assay of GDP-mannose conversion by recombinant GMDS ([…] enzyme, […] GDP-mannose)
Type: biochemical

- IC50: 231 µM
Structure (SMILES): Nc1nc2c(ncn2[C@@H]2O[C@H](COP(=O)(O)OP(=O)(O)O[C@H]3O[C@H](C(F)F)[C@@H](O)[C@H](O)[C@@H]3O)[C@@H](O)[C@H]2O)c(=O)[nH]1 [compound 25, GDP-D-Rha6F2]

— publication PMC8640046, “Fluorinated rhamnosides inhibit cellular fucosylation” (Nature Communications, 2021)
